Measured values: patent US12558329B2 (New York University, priority 2021, dated 2026)
Entries after “also recorded” stand apart in the source; their conditions may differ.

Tested on: MIAPACA2 cells
Test: 13C9-Tyr tracing in MIAPACA2 cells with the indicated reagents
Assay type: cell-based, human
Text: 4-HMA biosynthesis has only been described in some bacteria and in rabbits. […] The production of 4-HPPA occurs in the first step of tyrosine (Tyr) catabolism via tyrosine transaminase (TAT). In rabbits, 4-HMA was proposed to be synthesized from the degradation of tyramine and octopamine by dopamine β-hydroxylase (Dbh) and monoamine oxidase (Mao) (FIG. 9A)^13. Tyramine is also a Tyr-derived metabolite. Therefore, all known substrates required to generate 4-HMA are derived from Tyr. In addition, Tyr can also be made from phenylalanine (Phe) by Phe hydroxylase (PAH) in mammalian liver cells^14. To elucidate the human 4-HMA biosynthetic pathway, the fates of ^13C9-Tyr and ^13C6-Phe were traced in human cells. […] Additionally, the generation of 4-HMA by […] would result in the incorporation of a single ^18O at the Ca position of the carboxylic acid of 4-HMA (FIG. 9A). However, this was not observed by ^18O labelling (FIG. 8B). Therefore, it was unlikely that 4-HMA biosynthesis from octopamine and tyramine catabolism occurred in the present system.
Unexpectedly, 4-HMA levels also were lower in hyperoxic (21%) conditions compared to 3% O2, reflecting either decreased production or increased consumption of this metabolite at 21% O2.
Therefore, CoQ10 was used as an indirect readout of 4-HB production. To assess the ability of human cells to biosynthesize CoQ10, cells were labelled with ^13C6-Phe or ^13C9-Tyr. CoQ10 was completely biosynthesized from Tyr, but not Phe, in human cells (FIG. 11B).
For metabolomics, briefly, cells were washed in 4° C. 0.9% saline and metabolites were extracted with 46% methanol:23% H2O:[…] chloroform that contained a labelled amino acid standard mix (MSK-A2-1.2, Cambridge Isotope Laboratories, Inc.). Enzymatic assay samples were extracted using 80% methanol: 20% H2O that contained labelled amino acid standards. Extracts were placed into 1.5 mL Eppendorf tubes, vortexed at 4° C. for 10 min and centrifuged at 4° C. for 10 min at 17,200×g in a microcentrifuge. The aqueous phase was transferred to vials for GC-MS or Eppendorf tubes for LC-MS. Polar samples were evaporated in a SpeedVac and samples were resolved by GC-MS or LC-MS. Lipid samples were dried using a stream of N2 (for ^18O labelling studies) or air. Metabolite and lipid extracts were submitted to the NYULMC Metabolomics Core Resource Laboratory.
For polar metabolomics, the LC column was a Millipore ZIC-pHILIC (2.1×150 […], 5 μm bead size) coupled to a Dionex UltiMate 3000 system. The column oven temperature was held at 25° C. The flow rate was 100 μL/min, and the injection volume was 1 μL. Buffer A was 10 mM ammonium carbonate in water, pH 9, and Buffer B was neat acetonitrile. The gradient profile was 80-20% B (0-30 min), 20-80% B (30-31 min), and 80-80% B (31-42 min). MS Analyses were carried out on a Thermo Q Exactive HF mass spectrometer using a heated electrospray ionization (HESI) source. The method duration was 30 min using a polarity-switching, top 5 method. The spray voltage for both positive and negative ion modes was 3.5 kV. The capillary temperature was 320° C. with a maximum spray current of 100 ρA. The full MS scan was carried out at 120,000 resolution with a scan range of 67-1000 m/z. For ^18O2 labelling experiments, full MS scans were carried out at 240,000 resolution at the same scan range. Tandem MS spectra were obtained at 15,000 resolution. All data were acquired in profile mode. Peak heights were analyzed using Xcalibur (ThermoFisher Scientific).
Lipid metabolomics were acquired using a Waters CSH-C18 (2.1×100 mm, 1.7 μm) column coupled to a Dionex UltiMate 3000 system. The column oven temperature was held at 55° C. The flow rate was 300 μL/min and the injection volume was 1 μL. Buffer A was 60:40 acetonitrile:water, 0.1% formic acid and Buffer B was 90:10 isopropanol:acetonitrile, 10 mM ammonium formate. […]

## O=C(O)c1ccc(O)c2ncccc12 [IOX1]
3% 16O2, 24 hours
  13C9-Tyr-derived 4-HMA: attenuated or ablated; also recorded: severely inhibited
  CoQ10 labelling from 13C9-Tyr (incorporation of tyrosine into CoQ10): eliminated; also recorded: completely blocked
13C-Tyr, 3% O2, 24 hours
  4-HPLA pools: increased
